“Also recorded” adds a separate entry of the source. One block for each molecule: values may come before it.
Legend:
[1] = test system: non-small cell lung cancer cell PC-9 subcutaneous tumors; assay: Mouse tumor model of non-small cell lung cancer cell PC-9; format: in vivo; conditions: PC-9 tumor model; for tumor inhibition rate: Bal b/c mice, after 8 days of administration
Protocol: 24 Bal b/c female mice, 4-6 weeks old, were purchased from Shanghai SLAC Laboratory Animal Co., Ltd., and maintained in an SPF laboratory. Drinking water and bedding were both sterilized by autoclaving. All operations involving the mice were performed under aseptic conditions. At day 0, 5×10^6 non-small cell lung cancer cells PC9 (purchased from ATCC) were injected subcutaneously into the left flank of all mice. At day 15, all mice were divided into four groups (6 mice per group), and the first group of mice were orally administered with methyl cellulose (HKI) solvent, the second group of mice were orally administered with Compound 1 at a dose of 25 mg/kg mouse weight, the third group of mice were orally administered with Compound 1 at a dose of 50 mg/kg mouse weight, and the fourth group of mice were orally administered with Compound 1 at a dose of 100 mg/kg mouse weight daily. Starting from the administration, the length/width of the subcutaneous tumor was measured daily with a vernier caliper, and the weight of the mice was recorded daily to observe the effect of Compound 1 on the body weight of the mice. The mice were sacrificed at day 36 and the subcutaneous tumors were collected. The tumors were weighed, and then the tumor tissues were used to prepare protein lysates for use. The growth trend of the subcutaneous tumor within 16-36 days was plotted, wherein the tumor volume was calculated as length×width×width/2 mm^3.

[2] = test system: NCI-H3122; assay: Growth of cancer cells (Cell Titer-Glo viability), NCI-H3122; format: cell-based; conditions: Homo sapiens; NCI-H3122 (expressing ALK gene), 72 hrs; read-out: GI50

Compound: C=CC(=O)Nc1cc(Nc2ncc(Cl)c(Nc3ccccc3S(=O)(=O)C(C)C)n2)c(OC)cc1N1CCN(CC)CC1 [Compound 1, N-(5-(5-chloro-4-(2-(isopropylsulfonyl)phenylamino)pyrimidin-2-ylamino)-2-(4-ethylpiperazin-1-yl)-4-methoxyphenyl)acrylamide]
tumor inhibition rate ([1]; oral daily 25 mg/kg): 89.8%
tumor inhibition rate ([1]; oral daily 50 mg/kg): 95.1%
tumor inhibition rate ([1]; oral daily 100 mg/kg): 98.7%
body weight of the mice ([1]; oral daily 25 mg/kg, 25 mg/kg): barely affect the body weight; also recorded: did not decrease
body weight of the mice ([1]; oral daily 50 mg/kg): did not decrease

GI50 [2]: < 0.3 nM
Compound: C=CC(=O)Nc1cc(Nc2ncc(Cl)c(Nc3ccccc3S(=O)(=O)C(C)C)n2)c(OC)cc1N1CCCN(C)CC1 [Compound 10, N-(5-(5-chloro-4-(2-(isopropylsulfonyl)phenylamino)pyrimidin-2-ylamino)-4-methoxy-2-(4-methyl-1,4-homopiperazin-1-yl)phenyl)acrylamide]

— patent US10350210B2, “EGFR and ALK dual inhibitor” (PRECEDO PHARMACEUTICALS CO., LTD, priority 2015, dated 2019)
